# Data taken from PubChem BioAssay (NCI).
# Values joined by “and” are separate entries in the source; they are usually repeats but may differ in a detail not shown here. Equal values may be shown once.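 Cells were grown in 96-well plates and exposed to each compound for 48 hours at five concentrations; endpoints were interpolated linearly between bracketing concentrations, or set to the highest concentration if not reached. GI50: concentration for 50% inhibition of growth. TGI denotes the concentration required for complete inhibition of growth.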
# Tests used:
# Test in all cases: inhibition of tumour cell growth, NCI panel, 48 h
# CAKI-1 renal = tested on: CAKI-1 renal
# HCC-2998 colon = tested on: HCC-2998 colon
# HCT-15 colon = tested on: HCT-15 colon
# MDA-MB-435 = tested on: MDA-MB-435
# MOLT-4 leukemia = tested on: MOLT-4 leukemia
# SF-268 CNS = tested on: SF-268 CNS
# SK-OV-3 ovarian = tested on: SK-OV-3 ovarian
# SR leukemia = tested on: SR leukemia
# TK-10 renal = tested on: TK-10 renal
# U251 CNS = tested on: U251 CNS
structure (smiles),measurement,setting,value
O=C1Nc2ccccc2C1Cc1ccc([N+](=O)[O-])cc1 (stereo not given),TGI,CAKI-1 renal,> 100 µM
same,TGI,HCC-2998 colon,> 100 µM
same,TGI,HCT-15 colon,> 100 µM
same,TGI,MDA-MB-435,> 100 µM
same,TGI,MOLT-4 leukemia,> 100 µM
same,TGI,SF-268 CNS,> 100 µM
same,TGI,SK-OV-3 ovarian,> 100 µM
same,TGI,SR leukemia,> 100 µM
same,TGI,TK-10 renal,> 100 µM
same,TGI,U251 CNS,> 100 µM
C/C([O-])=C1\Cc2ccccc2C1=O.C/C([O-])=C1\Cc2ccccc2C1=O.CC[O-].CC[O-].[Ti+4],GI50,CAKI-1 renal,36.5 µM
same,TGI,CAKI-1 renal,> 100 µM
same,GI50,HCC-2998 colon,17.3 µM
same,TGI,HCC-2998 colon,58.8 µM
same,GI50,HCT-15 colon,11.8 µM
same,TGI,HCT-15 colon,79.4 µM
same,GI50,MDA-MB-435,17.6 µM
same,TGI,MDA-MB-435,43 µM
same,GI50,MOLT-4 leukemia,16.5 µM
same,TGI,MOLT-4 leukemia,> 46.4 µM
same,GI50,SF-268 CNS,17.1 µM
same,TGI,SF-268 CNS,47.3 µM
same,GI50,SK-OV-3 ovarian,20.3 µM
same,TGI,SK-OV-3 ovarian,81.7 µM
same,GI50,SR leukemia,19.1 µM
same,TGI,SR leukemia,> 79.9 µM
same,GI50,TK-10 renal,32.2 µM
same,TGI,TK-10 renal,> 100 µM
same,GI50,U251 CNS,9.36 µM
same,TGI,U251 CNS,26.2 µM
C=C(C)C(=O)OC1CC2=CC(CC3(C)OC3C3OC(=O)C(=C)C13)OC2=O (stereo not given),TGI,CAKI-1 renal,12.7 µM
same,TGI,HCC-2998 colon,34.8 µM
same,TGI,HCT-15 colon,20.2 µM
same,TGI,MDA-MB-435,30.2 µM
same,TGI,MOLT-4 leukemia,15 µM
same,TGI,SF-268 CNS,47.3 µM
same,TGI,SK-OV-3 ovarian,36.8 µM
same,TGI,SR leukemia,15.7 µM
same,TGI,TK-10 renal,15.3 µM
same,TGI,U251 CNS,32.5 µM
COc1ccc2c(c1)c(-c1nc(-c3c[nH]c4ncccc34)cs1)cn2CCCCN1CCOCC1,GI50,CAKI-1 renal,1.8 µM
same,TGI,CAKI-1 renal,3.79 µM
same,GI50,HCC-2998 colon,1.91 µM
same,TGI,HCC-2998 colon,3.7 µM
same,GI50,HCT-15 colon,1.96 µM
same,TGI,HCT-15 colon,4.14 µM
same,GI50,MDA-MB-435,1.7 µM
same,TGI,MDA-MB-435,3.17 µM
same,GI50,MOLT-4 leukemia,1.86 µM
same,TGI,MOLT-4 leukemia,3.92 µM
same,GI50,SF-268 CNS,1.8 µM
same,TGI,SF-268 CNS,3.93 µM
same,GI50,SK-OV-3 ovarian,2.37 µM
same,TGI,SK-OV-3 ovarian,5.27 µM
same,GI50,SR leukemia,2.01 µM
same,TGI,SR leukemia,4.65 µM
same,GI50,TK-10 renal,5.25 µM
same,TGI,TK-10 renal,18 µM
same,GI50,U251 CNS,1.73 µM
same,TGI,U251 CNS,3.33 µM
O=C1/C(=C/c2ccccc2F)CNC/C1=C\c1ccccc1F,GI50,CAKI-1 renal,0.676 µM and 0.611 µM
same,TGI,CAKI-1 renal,3.71 µM and 2.16 µM
same,GI50,HCC-2998 colon,1.13 µM and 0.359 µM
same,TGI,HCC-2998 colon,2.38 µM and 1.16 µM
same,GI50,HCT-15 colon,0.196 µM and 0.291 µM
same,TGI,HCT-15 colon,0.511 µM and 1.16 µM
same,GI50,MDA-MB-435,0.482 µM and 0.472 µM
same,TGI,MDA-MB-435,1.46 µM and 1.92 µM
same,GI50,MOLT-4 leukemia,0.425 µM and 0.738 µM
same,TGI,MOLT-4 leukemia,1.76 µM and 3.13 µM
same,GI50,SF-268 CNS,0.62 µM and 0.309 µM
same,TGI,SF-268 CNS,5.37 µM and 1.21 µM
same,GI50,SK-OV-3 ovarian,1.68 µM and 1.58 µM
same,TGI,SK-OV-3 ovarian,4.01 µM and 3.12 µM
same,GI50,SR leukemia,0.0772 µM and 0.245 µM
same,TGI,SR leukemia,0.361 µM and 0.813 µM
same,GI50,TK-10 renal,2.92 µM and 1.51 µM
same,TGI,TK-10 renal,8.48 µM and 3.5 µM
same,GI50,U251 CNS,0.165 µM
same,TGI,U251 CNS,0.362 µM and 0.372 µM
Nc1ncnc2c1ncn2CC(O)C(=O)O (stereo not given),TGI,CAKI-1 renal,> 100 µM
same,TGI,HCC-2998 colon,> 100 µM
same,TGI,HCT-15 colon,> 100 µM
same,TGI,MDA-MB-435,> 100 µM
same,TGI,MOLT-4 leukemia,> 100 µM
same,TGI,SF-268 CNS,> 100 µM
same,TGI,SK-OV-3 ovarian,> 100 µM
same,TGI,SR leukemia,> 100 µM
same,TGI,TK-10 renal,> 100 µM
same,TGI,U251 CNS,> 100 µM
C=CCNCCCN1C(=O)c2ccc3c4c(ccc(c24)C1=O)C(=O)N(CCCNCC=C)C3=O,GI50,CAKI-1 renal,0.34 µM
same,TGI,CAKI-1 renal,1.97 µM
same,GI50,HCC-2998 colon,0.428 µM
same,TGI,HCC-2998 colon,1.54 µM
same,GI50,HCT-15 colon,0.413 µM
same,TGI,HCT-15 colon,2.38 µM
same,GI50,MDA-MB-435,0.199 µM
same,TGI,MDA-MB-435,0.434 µM
same,GI50,MOLT-4 leukemia,0.335 µM
same,TGI,MOLT-4 leukemia,1.68 µM
same,GI50,SF-268 CNS,0.557 µM
same,TGI,SF-268 CNS,4.41 µM
same,GI50,SK-OV-3 ovarian,0.775 µM
same,TGI,SK-OV-3 ovarian,3.61 µM
same,GI50,SR leukemia,0.407 µM
same,TGI,SR leukemia,2.08 µM
same,GI50,TK-10 renal,0.551 µM
same,TGI,TK-10 renal,6.14 µM
same,GI50,U251 CNS,0.269 µM
same,TGI,U251 CNS,1 µM
